Experimental data: PubChem BioAssay (NCI)
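Grown in 96-well plates, cells were treated for 48 hours with each compound at five concentrations. Insufficient inhibition: endpoint recorded as highest concentration tested. Definition used: TGI = concentration required for complete inhibition of growth.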

Experiments:
Experiment in all cases: NCI tumour cell line growth inhibition, 48 h
DMS 114 small cell lung = system: DMS 114 small cell lung
LXFL 529 NSCLC = system: LXFL 529 NSCLC
M19-MEL melanoma = system: M19-MEL melanoma
SNB-78 CNS = system: SNB-78 CNS
KM20L2 colon = system: KM20L2 colon
DU-145 prostate = system: DU-145 prostate
MDA-MB-231 breast = system: MDA-MB-231 breast
NCI/ADR-RES ovarian = system: NCI/ADR-RES ovarian
PC-3 prostate = system: PC-3 prostate
T-47D breast = system: T-47D breast

Structure (SMILES) | TGI (DMS 114 small cell lung) [µM] | TGI (LXFL 529 NSCLC) [µM] | TGI (M19-MEL melanoma) [µM] | TGI (SNB-78 CNS) [µM] | TGI (KM20L2 colon) [µM] | TGI (DU-145 prostate) [µM] | TGI (MDA-MB-231 breast) [µM] | TGI (NCI/ADR-RES ovarian) [µM] | TGI (PC-3 prostate) [µM] | TGI (T-47D breast) [µM]
c1ccc2[nH]c(CNc3ccc(C4C[Se]N=N4)cc3)nc2c1 (stereo not given) | 72.6 | 67.7 | > 100 |  |  |  |  |  |  | 
COc1ccccc1NC(=O)/C(=C/c1ccccc1)C(C)=O | > 100 | > 100 | > 100 | 44.6 |  |  |  |  |  | 
O=C1[C@H]2ON(c3ccccc3)C(c3ccco3)[C@H]2C(=O)N1c1ccc(Cc2ccc(N3C(=O)[C@@H]4ON(c5ccccc5)C(c5ccco5)[C@@H]4C3=O)cc2)cc1 (stereo not given in full) | > 100 | > 100 | > 100 | > 100 | > 100 |  |  |  |  | 
Cc1nc(-c2cccnc2)sc1C(=O)/C=C/c1cccc([N+](=O)[O-])c1 | > 100 |  | > 100 |  | > 100 |  |  |  |  | 
CC(C)(C)c1ccc(OC2CCO2)cc1 (stereo not given) | > 100 | > 100 | 56.1 | > 100 | 52.8 |  |  |  |  | 
CC1=NN(C(=O)c2ccncc2)C(=O)C1N=Nc1ccc(F)cc1 (stereo not given) | > 100 | > 100 | > 100 | > 100 | > 100 |  |  |  |  | 
O=C1CNS(=O)(=O)N1 | > 100 | > 100 | > 100 | > 100 |  |  |  |  |  | 
C=C1C2Oc3ccccc3C1N(c1ccccc1)O2 (stereo not given) | 79 | > 100 | > 100 |  | > 100 |  |  |  |  | 
CCCCCCCCCCCCCCCCCCOCC(COCCOCC[N+]1(CCCCCC(=O)[O-])CCCC1)Oc1ncccn1 (stereo not given) | 7.1 |  | 1.33 | 4.52 | 14.5 | 27.2 | 21.7 | 24.1 | 15 | 21.2
CC(C)(C)NCC(COc1ccc([N+](=O)[O-])cc1)OP(c1ccccc1)c1ccccc1 (stereo not given) | 83.9 | > 100 | > 100 | > 100 | > 100 |  |  |  |  | 
COc1ccc2[nH]c(-c3ccc(O)cc3)cc(=O)c2c1 | 1.49 | > 100 | > 86 | > 100 | > 18.6 | > 100 | > 100 |  | > 100 | 79.6
Nc1ccccc1C(=O)C(Br)C(Br)c1ccc2c(c1)OCO2 (stereo not given) | 40.2 | 46 | 39.6 | 81 | 31 |  |  |  |  | 
COc1ccc(-c2c(C3=NCCCN3)nnn2-c2ccc([N+](=O)[O-])cc2)cc1 | > 100 | > 100 | > 100 | > 100 | > 100 |  |  |  |  | 
C=CCNC(=O)N(CCC)CCCC(NC(C)=O)C(=O)NCc1ccccc1 (stereo not given) | > 100 | > 100 | > 100 |  | > 100 |  |  |  |  | 
O=c1[nH]c2cc([N+](=O)[O-])ccc2nc1/C(=N\Nc1ccccc1)C(O)c1ccc2c(c1)OCO2 (stereo not given) | > 100 | > 100 | > 100 | > 100 | > 100 |  |  |  |  | 
